Data reported in patent US6642216B2, “Isoprenoid pathway inhibitors for stimulating bone growth” (ZymoGenetics Corporation, priority 1996, dated 2003).

Key:
[1] = tested on: neonatal mouse calvaria; assay: Neonatal mouse calvaria assay (in vitro bone formation); type: cell-based; design: Osteoblast Number, % increase over vehicle control / New Bone Area, % increase over vehicle control: concentration or dose not given beside the values
Protocol: Briefly, four days after birth, the front and parietal bones of ICR Swiss white mouse pups are removed by microdissection and split along the sagittal suture.
Three μm sections of the calvaria are prepared. Representative sections are selected for histomorphometric assessment of bone formation or bone resorption. Bone changes are measured on sections cut 200 μm apart. Osteoblasts and osteoclasts are identified by their distinctive morphology.
Selected compounds and appropriate controls were assayed in vitro (ex vivo) for bone formation activity (described above in “Neonatal Mouse Calvaria Assay (in vitro)”). Histomorphometrical assessments of ex vivo calvaria were carried out using an OsteoMetrics bone morphometry measurement program, according to the manufacturer's instructions. Measurements were determined using either a 10- or 20-fold objective with a standard point counting eyepiece graticule.
New bone formation was determined (using a 10× objective) by measuring the new bone area formed in one field in 3 representative sections of each bone (4 bones per group). Each measurement was carried out ½ field distance from the end of the suture. Both total bone and old bone area were measured. Data were expressed as new bone area in mm^2.
Osteoblast numbers were determined by point counting. The number of osteoblast cells lining the bone surface on both sides of the bone were counted in one field using a 20× objective. Data were expressed as osteoblast numbers/mm of bone surface.
The results were calculated as new bone area in mm^2×10^−3, as above.

[2] = tested on: ICR Swiss white mice calvaria; assay: In vivo murine calvarial bone growth assay; design: species or system mouse
Protocol: Male ICR Swiss white mice, aged 4-6 weeks and weighing 13-26 gm, are employed, using 4-5 mice per group. The calvarial bone growth assay is performed as described in PCT application WO 95/24211, incorporated by reference. Briefly, the test compound or appropriate control vehicle is injected into the subcutaneous tissue over the right calvaria of normal mice. Typically, the control vehicle is the vehicle in which the compound was solubilized, and is PBS containing 5% DMSO or is PBS containing Tween (2 μl/10 ml). The animals are sacrificed on day 14 and bone growth measured by histomorphometry. Bone samples for quantitation are cleaned from adjacent tissues and fixed in 10% buffered formalin for 24-48 hours, decalcified in 14% EDTA for 1-3 weeks, processed through graded alcohols; and embedded in paraffin wax. Three to five μm sections of the calvaria are prepared, and representative sections are selected for histomorphometric assessment of the effects on bone formation and bone resorption. Sections are measured by using a camera lucida attachment to trace directly the microscopic image onto a digitizing plate. Bone changes are measured on sections cut 200 μm apart, over 4 adjacent 1×1 mm fields on both the injected and noninjected sides of the calvaria. New bone is identified by its characteristic woven structure, and osteoclasts and osteoblasts are identified by their distinctive morphology. Histomorphometry software (OsteoMeasure, Osteometrix, Inc., Atlanta) is used to process digitizer input to determine cell counts and measure areas or perimeters.
The results are reported as a measurement of total bone area (and % increase in area over vehicle control), as shown below.

[3] = tested on: BMP-2 promoter; assay: ABA assay: BMP-2 promoter-luciferase reporter in 2T3-BMP-2-LUC osteoblast cells; type: cell-based, mouse
Protocol: These transformed cells are then evaluated for the production of the reporter gene product; compounds that activate the BMP promoter will drive production of the reporter protein, which can be readily assayed.
The cells were cultured using α-MEM, 10% FCS with 1% penicillin/streptomycin and 1% glutamine (“plating medium”), and were split 1:5 once per week. For the assay, the cells were resuspended in a plating medium containing 4% FCS, plated in microtiter plates at a concentration of 5×10^3 cells (in 50 μl)/well, and incubated for 24 hours at 37° C. in 5% CO2. To initiate the assay, 50 μl of the test compound or the control in DMSO was added at 2× concentration to each well, so that the final volume was 100 μl. The final serum concentration was 2% FCS, and the final DMSO concentration was 1%.
The treated cells were incubated for 24 hours at 37° C. and 5% CO2. The medium was then removed, and the cells were rinsed three times with PBS. After removal of excess PBS, 25 μl of 1× cell culture lysing reagent (Promega #E153A) was added to each well and incubated for at least ten minutes. Optionally, the plates/samples could be frozen at this point. To each well was added 50 μl of luciferase substrate (Promega #E152A; 10 ml Promega luciferase assay buffer per 7 mg Promega luciferase assay substrate). Luminescence was measured on an automated 96-well luminometer, and was expressed as either picograms of luciferase activity per well or as picograms of luciferase activity per microgram of protein.
Alternatively, the reactivity of a compound to be tested can be compared directly to a negative control containing no compound.

[4] = Experiment 3, 8.88178E μg/ml (0.002193 μM lovastatin, 0.002087 μM fluvastatin)

CC[C@H](C)C(=O)O[C@H]1C[C@@H](C)C=C2C=C[C@H](C)[C@H](CC[C@@H]3C[C@@H](O)CC(=O)O3)[C@H]21 [Lovastatin, lovastatin]
inducing bone formation, compared with BMP-2 and bFGF [1]: as good as, or better than
New Bone Area ([1]; Experiment 3, 3 days): 8.2 mm^2 × 10^−3
New Bone Area, % increase over vehicle control ([1]; Experiment 3, 3 days): 182%
Osteoblast Number ([1]; Experiment 3, 3 days): 128 Obs/field
Osteoblast Number, % increase over vehicle control ([1]; Experiment 3, 3 days): 152%
% increase in total bone area over vehicle control ([2]; 0.1 mg/kg/day): 0%
Total Bone Area ([2]; 0.1 mg/kg/day): 162 μm^2
% increase in total bone area over vehicle control ([2]; 1 mg/kg/day): 41%
Total Bone Area ([2]; 1 mg/kg/day): 237 μm^2
% increase in total bone area over vehicle control ([2]; 5 mg/kg/day): 40%
Total Bone Area ([2]; 5 mg/kg/day): 235 μm^2
% increase in total bone area over vehicle control ([2]; 10 mg/kg/day): 42%
Total Bone Area ([2]; 10 mg/kg/day): 239 μm^2
bone stimulatory effect compared with 12.5 μg/kg/day bFGF ([2]; 10 mg/kg/day): comparable
effect on total bone area ([2]; varying doses): dose-dependent increase in total bone area
dose-dependent stimulatory effect in the ABA assay [3]: dose-dependent stimulatory effect
% 59-0008 Response ([3]; Experiment 1, 0.195312 μg/ml): 22.840%
Fold increase over negative control ([3]; Experiment 1, 0.195312 μg/ml): 2.011 fold
% 59-0008 Response ([3]; Experiment 1, 0.390625 μg/ml): 27.830%
Fold increase over negative control ([3]; Experiment 1, 0.390625 μg/ml): 2.232 fold
% 59-0008 Response ([3]; Experiment 1, 0.78125 μg/ml): 35.220%
Fold increase over negative control ([3]; Experiment 1, 0.78125 μg/ml): 2.559 fold
% 59-0008 Response ([3]; Experiment 1, 1.5625 μg/ml): 67.080%
Fold increase over negative control ([3]; Experiment 1, 1.5625 μg/ml): 3.970 fold
% 59-0008 Response ([3]; Experiment 1, 3.125 μg/ml): 111.730%
Fold increase over negative control ([3]; Experiment 1, 3.125 μg/ml): 5.947 fold
% 59-0008 Response ([3]; Experiment 1, 6.25 μg/ml): 126.230%
Fold increase over negative control ([3]; Experiment 1, 6.25 μg/ml): 6.589 fold
% 59-0008 Response ([3]; Experiment 1, 12.5 μg/ml): 153.790%
Fold increase over negative control ([3]; Experiment 1, 12.5 μg/ml): 7.809 fold
% 59-0008 Response ([3]; Experiment 1, 25 μg/ml): 144.730%
Fold increase over negative control ([3]; Experiment 1, 25 μg/ml): 7.408 fold
% 59-0008 Response ([3]; Experiment 1, 50 μg/ml): −22.510%
Fold increase over negative control ([3]; Experiment 1, 50 μg/ml): 0.003 fold
% 59-0008 Response ([3]; Experiment 1, 200 μg/ml): −22.650%
Fold increase over negative control ([3]; Experiment 1, 200 μg/ml): −0.003 fold
% 59-0008 Response ([3]; Experiment 3, 0.002842 μg/ml): 1.050%
Fold increase over negative control ([3]; Experiment 3, 0.002842 μg/ml): 1.032 fold
% 59-0008 Response ([3]; Experiment 3, 0.009094 μg/ml): 2.720%
Fold increase over negative control ([3]; Experiment 3, 0.009094 μg/ml): 1.083 fold
% 59-0008 Response ([3]; Experiment 3, 0.029103 μg/ml): 1.550%
Fold increase over negative control ([3]; Experiment 3, 0.029103 μg/ml): 1.048 fold
% 59-0008 Response ([3]; Experiment 3, 0.093132 μg/ml): 3.210%
Fold increase over negative control ([3]; Experiment 3, 0.093132 μg/ml): 1.099 fold
% 59-0008 Response ([3]; Experiment 3, 0.298023 μg/ml): 10.860%
Fold increase over negative control ([3]; Experiment 3, 0.298023 μg/ml): 1.333 fold
% 59-0008 Response ([3]; Experiment 3, 0.953674 μg/ml): 35.300%
Fold increase over negative control ([3]; Experiment 3, 0.953674 μg/ml): 2.083 fold
% 59-0008 Response ([3]; Experiment 3, 3.051757 μg/ml): 103.260%
Fold increase over negative control ([3]; Experiment 3, 3.051757 μg/ml): 4.169 fold
% 59-0008 Response ([3]; Experiment 3, 9.765625 μg/ml): 148.030%
Fold increase over negative control ([3]; Experiment 3, 9.765625 μg/ml): 5.543 fold
% 59-0008 Response ([3]; Experiment 3, 31.25 μg/ml): 166.770%
Fold increase over negative control ([3]; Experiment 3, 31.25 μg/ml): 6.118 fold
% 59-0008 Response [3, 4]: 0.620%
Fold increase over negative control [3, 4]: 1.019 fold

CCC(C)(C)C(=O)O[C@H]1C[C@@H](C)C=C2C=C[C@H](C)[C@H](CC[C@@H]3C[C@@H](O)CC(=O)O3)[C@H]21 [Simvastatin, simvastatin]
New Bone Area ([1]; Experiment 1, 3 days): 8.5 mm^2 × 10^−3
New Bone Area, % increase over vehicle control ([1]; Experiment 1, 3 days): 77%
Osteoblast Number ([1]; Experiment 1, 3 days): 156 Obs/field
Osteoblast Number, % increase over vehicle control ([1]; Experiment 1, 3 days): 63%
New Bone Area ([1]; Experiment 1, 7 days): 17.4 mm^2 × 10^−3
New Bone Area, % increase over vehicle control ([1]; Experiment 1, 7 days): 123%
Osteoblast Number ([1]; Experiment 1, 7 days): 154 Obs/field
Osteoblast Number, % increase over vehicle control ([1]; Experiment 1, 7 days): 68%
New Bone Area ([1]; Experiment 2, 3 days): 15.4 mm^2 × 10^−3
New Bone Area, % increase over vehicle control ([1]; Experiment 2, 3 days): 285%
Osteoblast Number ([1]; Experiment 2, 3 days): 154 Obs/field
Osteoblast Number, % increase over vehicle control ([1]; Experiment 2, 3 days): 70%
New Bone Area ([1]; combination study, IBN (1 μM), 59-0328 0.1 μM alone): 5.1 ± 0.49 mm^2 × 10^−3
New Bone Area ([1]; combination study, IBN (1 μM), 59-0328 0.2 μM alone): 5.23 ± 0.89 mm^2 × 10^−3
New Bone Area ([1]; combination study, IBN (10 μM), 59-0328 0.1 μM alone): 4.25 ± 0.59 mm^2 × 10^−3
New Bone Area ([1]; combination study, IBN (10 μM), 59-0328 0.2 μM alone): 6.83 ± 1.54 mm^2 × 10^−3
% increase in total bone area over vehicle control ([2]; 1 mg/kg/day): 2%
Total Bone Area ([2]; 1 mg/kg/day): 172 μm^2
% increase in total bone area over vehicle control ([2]; 5 mg/kg/day): 20%
Total Bone Area ([2]; 5 mg/kg/day): 202 μm^2
% increase in total bone area over vehicle control ([2]; 10 mg/kg/day): 46%
Total Bone Area ([2]; 10 mg/kg/day): 245 μm^2
increase in the number of osteoblasts ([2]; mouse, in vivo): 1.5 fold
% 59-0008 Response ([3]; Experiment 1, 0.195312 μg/ml): 29.030%
% 59-0008 Response ([3]; Experiment 1, 0.390625 μg/ml): 38.210%
% 59-0008 Response ([3]; Experiment 1, 0.78125 μg/ml): 69.600%
% 59-0008 Response ([3]; Experiment 1, 1.5625 μg/ml): 99.170%
% 59-0008 Response ([3]; Experiment 1, 3.125 μg/ml): 135.610%
% 59-0008 Response ([3]; Experiment 1, 6.25 μg/ml): 141.970%
% 59-0008 Response ([3]; Experiment 1, 12.5 μg/ml): 131.300%
% 59-0008 Response ([3]; Experiment 1, 25 μg/ml): 148.310%
% 59-0008 Response ([3]; Experiment 1, 50 μg/ml): −22.950%
% 59-0008 Response ([3]; Experiment 1, 100 μg/ml): −23.010%
% 59-0008 Response ([3]; Experiment 1, 200 μg/ml): −22.960%
% 59-0008 Response ([3]; Experiment 2, 0.465820 μM, 0.195312 μg/ml): 0.310%
% 59-0008 Response ([3]; Experiment 2, 0.931640 μM, 0.390625 μg/ml): 2.600%
% 59-0008 Response ([3]; Experiment 2, 1.863281 μM, 0.78125 μg/ml): 6.820%
% 59-0008 Response ([3]; Experiment 2, 3.726562 μM, 1.5625 μg/ml): 19.670%
% 59-0008 Response ([3]; Experiment 2, 7.453125 μM, 3.125 μg/ml): 51.660%
% 59-0008 Response ([3]; Experiment 2, 14.90625 μM, 6.25 μg/ml): 104.640%
% 59-0008 Response ([3]; Experiment 2, 29.8125 μM, 12.5 μg/ml): 152.290%
% 59-0008 Response ([3]; Experiment 2, 59.625 μM, 25 μg/ml): 180.640%
% 59-0008 Response ([3]; Experiment 2, 119.25 μM, 50 μg/ml): 189.430%
% 59-0008 Response ([3]; Experiment 2, 238.5 μM, 100 μg/ml): 304.100%
% 59-0008 Response ([3]; Experiment 2, 477 μM, 200 μg/ml): 222.180%
